“Also recorded” adds a separate entry of the source. Blank lines part the entries; values can stand above or below the molecule they belong to.
Key:
[1] = test system: primary mouse hepatocytes; experiment: MIEL-Rejuvenation in primary old hepatocytes; type: cell-based, mice; conditions: for outcome in high throughput screening using primary mouse hepatocytes (miBioAge): figure legends FIG. 63-65; for shift of epigenetic signature of old cells towards that of young cells: old hepatocytes
Text: To meet this challenge, techniques described herein were employed to analyze the effects of various drugs on the analysis of epigenome topography at the single cell level. Because of large numbers of cells required for drug screening, mice were used as a source of (C57BLACK/6) of liver hepatocytes (˜98% pure in the preparations) for probing whether epigenetic signature of aging is retained after short-term cultures of hepatocytes. […] The ability of hepatocytes to maintain age-related epigenetic or multiparametric signatures in cell culture conditions provides the foundation for high throughput screening.
These high content screenings using MIEL pipeline were conducted to adapt these assay conditions. Briefly, on day 0, 10,000 primary mouse hepatocytes per well were seeded in 384 well plates. Hepatocytes were isolated via a 2-step perfusion method yielding ˜98% pure population of primary hepatocytes. At 24 hrs after seeding, compounds were added in DMSO. Primary mouse hepatocytes were determined to tolerate DMSO concentrations of at least 0.1% (v/v) without adverse effects on cell growth or viability over 5 days (compared to no DMSO control). Using the Echo acoustic compound dispensing system and 10 mM stock concentration library plates, each of the drugs at concentrations up to 10 μM was sufficiently delivered. At 4 days after seeding, cells were fixed and immunolabeled with antibody to H3K9me3, H3K27me3, and H4K20me3 (initially in separate wells) to determine the efficiency of each individual mark and potential for synergy.

GBM2 cells [2] = experiment: Immunofluorescence of core TPC transcription factors and Ki67 in drug-treated cells; type: cell-based, human; conditions: for Sox2 expression: GBM2, 3 days treatment, Digitoxigenin 0.3 μM; for expression of the core transcription factors: GBM2, compared with serum and Bmp4; for Sall2 and Brn2 expression: GBM2, immunofluorescence
Protocol: Cell staining: Cells were rinsed with PBS and fixed in 4% paraformaldehyde in PBS for 10 min at room temperature. After blocking with PBSAT (2% BSA and 0.5% Triton X-100 in PBS) for 1 h at room temperature, the cells were incubated overnight at 4° C. with primary antibodies diluted in PBSAT. The primary antibodies are listed in Table 2, and the appropriate fluorochrome-conjugated secondary antibodies were used at 1:500 dilution. Nuclear co-staining was performed by incubating cells with Hoechst-33342 nuclear dye.
Microscopy and image analysis: Unless stated otherwise, for MIEL analysis cells were imaged on an Opera QEHS high-content screening system (PerkinElmer) using ×40 water immersion objectives. Images collected on the Opera were analyzed using Acapella 2.6 (PerkinElmer). At least 40 fields per well were acquired and at least 2 wells per population were used. Features of nuclear morphology, fluorescence intensity inter-channel co-localization, and texture features (Image moments, Haralick, Threshold Adjacency Statistics) were calculated using custom algorithms (scripts available from www.andrewslab.ca). A full list of the features used is available from the authors. Values for each cell were generated and exported to MATLAB for further analysis. For Sall2, Olig2, Brn2, Sox2, Oct4 and GFAP immunostaining, images were captured on an IC200-KIC (Vala Sciences) using a ×20 objective. Between 3 and 8 fields per well were acquired and analyzed using Acapella 2.6 (PerkinElmer). For all nuclear markers, average intensities in nucleus or fold change in average intensity compared to untreated cells are shown. Unless stated otherwise, at least 3 wells and a minimum of 300 cells for each condition were compared using unpaired two-tailed t-test was.
Microscopy and image analysis: For MIEL analysis, cells were imaged on either an Opera QEHS high-content screening system (PerkinElmer) using ×40 water immersion objectives or an IC200-KIC (Vala Sciences) using a ×20 objective. Images collected were analyzed using Acapella 2.6 (PerkinElmer). At least 40 fields/well for Opera and 5 fields/well for IC200 were acquired and at least 2 wells per population were used. Features of nuclear morphology, fluorescence intensity inter-channel co-localization, and texture features (Image moments, Haralick, Threshold Adjacency Statistics) were calculated using custom algorithms. A full list of the features used is available from the authors. Values for each cell were generated and exported to Microsoft Excel or MATLAB for further analysis. For Sall2, Olig2, Brn2, Sox2, Oct4, and GFAP immunostaining, images were captured on an IC200-KIC (Vala Sciences) using a ×20 objective. Between 3 and 8 fields per well were acquired and analyzed using Acapella 2.6 (PerkinElmer). For all nuclear markers, average intensities in nucleus or fold change compared to untreated cells are shown. Unless stated otherwise, at least 3 wells and a minimum of 300 cells for each condition were compared using the unpaired two-tailed t-test.

GBM2 cells [3] = experiment: RNAseq and transcriptomic analysis; type: cell-based, human; conditions: for gene expression changes (GO terms) compared with those induced by serum or BMP4 / ranking by average Euclidean distance from serum- or Bmp4-treated cells (MIEL- and gene expression-based): GBM2, 3 days; for Euclidean distance (FPKM, all expressed genes) of treated cells to serum or Bmp4 treated cells: GBM2 TPCs; for ranking by average Euclidean distance from serum- or Bmp4-treated cells (MIEL- and gene expression-based): 8 candidate compounds
Protocol: RNAseq and transcriptomic analysis: Total RNA was isolated from GBM2 cells using the RNeasy Kit (Qiagen), 0.5 ug total RNA was used for isolation of mRNAs and library preparation. Library preparation and sequencing was conducted by the SBP genomics core (Sanford-Burnham NCI Cancer Center Support Grant P30 CA030199). PolyA RNA was isolated using the NEBNext® Poly(A) mRNA Magnetic Isolation Module and barcoded libraries were made using the NEBNext® Ultra II™ Directional RNA Library Prep Kit for Illumina® (NEB, Ipswich MA). Libraries were pooled and single end sequenced (1X75) on the Illumina NextSeq 500 using the High output V2 kit (Illumina). Read data was processed in BaseSpace. Reads were aligned to Homo sapiens genome (hg19) using STAR aligner with default settings. Differential transcript expression was determined using the Cufflinks Cuffdiff package. Go term enrichment analysis was conducted using PANTHER v11 using all genes identified as differentially expressed following either serum or Bmp4 treatment. For heat maps showing fold change in expression the FPKM values in each population were divided by the average FPKM values of untreated GBM2. To highlight differences in expression levels between serum and Bmp4 treated GBM2 cells the FPKM values in each sample were z-scored. Zscore=(FPKMObservation−FPKMAverage)/FPKMSD (FPKMObservation−FPKM value obtain through sequencing; FPKMAverage−average of all FPKM values in all samples for a certain gene; FPKMSD−standard deviation of FPKM values for a certain gene). Heat maps were generated using Microsoft Excel conditional formatting function.
Correlation of transcriptomic and image-based profiles: Euclidean distance between untreated, serum or Bmp4 treated GBM2 cells (triplicates for each) was calculated using either transcriptomic data (FPKM) or texture features. Pearson's correlation coefficient (R) was transformed to a t-value using the formula (t=R×SQRT(N−2)/SQRT(1−R2) where N is the number of samples, and R is Pearson correlation coefficient, and the p-value was calculated using Excel tdist(t) function. For compound prioritization, the Euclidean distance between compound treated and serum or Bmp4 treated GBM2 cells was calculated based on either transcriptomic data (FPKM) or image features. The average distance to both serum and Bmp4 treatments was normalized to the average distance of untreated cells to serum and Bmp4.
RNAseq and transcriptomic analysis: Total RNA was isolated from GBM2 cells using the RNeasy Kit (Qiagen), 0.25 μg total RNA was used to isolate mRNAs and for library preparation. Library preparation and sequencing were conducted by the SBP genomics core (Sanford-Burnham NCI Cancer Center Support Grant P30 CA030199). PolyA RNA was isolated using the NEBNext® Poly(A) mRNA Magnetic Isolation Module, and barcoded libraries were made using the NEBNext® Ultra II™ Directional RNA Library Prep Kit for Illumina® (NEB, Ipswich MA). Libraries were pooled and single-end sequenced (1×75) on the Illumina NextSeq 500 using the High-Output V2 kit (Illumina). Read data, processed in BaseSpace, were aligned to Homo sapiens genome (hg19) using STAR aligner with default settings. Differential transcript expression was determined using the Cufflinks Cuffdiff package. For heat maps showing fold change in expression, FPKM values in each HDACi-treated population were divided by the average FPKM values of DMSO-treated GBM2 and values shown as log 2 of the ratio. Go enrichment analysis was conducted using PANTHER v11 using all genes identified as differentially expressed following either serum or Bmp4 treatment. To highlight differences in expression levels between serum- and Bmp4-treated GBM2 cells, FPKM values in each sample were z-scored. Zscore=(FPKMObservation−FPKMAverage)/FPKMSD (FPKMObservation−FPKM value obtain through sequencing; FPKMAverage−average of all FPKM values in all samples for a certain gene; FPKMSD−standard deviation of FPKM values for a certain gene). […]

TPCs = experiment: Growth rate of treated glioblastoma cells; conditions: GBM2, 3 days, compared with serum/Bmp4 treatment

Compound: C[C@]12CC[C@H](O)C[C@H]1CC[C@@H]1[C@@H]2CC[C@]2(C)[C@@H](C3=CC(=O)OC3)CC[C@]12O [Digitoxigenin]
- Sox2 expression (GBM2 cells [2]): reduce
- expression of the core transcription factors (GBM2 cells [2]): downregulate
- Sall2 and Brn2 expression (GBM2 cells [2]): significant reduction
- gene expression changes (GO terms) compared with those induced by serum or BMP4 (GBM2 cells [3]): markedly different
- Euclidean distance (FPKM, all expressed genes) of treated cells to serum or Bmp4 treated cells (GBM2 cells [3]): Neither Digitoxigenin nor Digoxin reduced the distance

Compound: C[C@H]1O[C@@H](O[C@H]2[C@@H](O)C[C@H](O[C@H]3[C@@H](O)C[C@H](O[C@H]4CC[C@@]5(C)[C@H](CC[C@@H]6[C@@H]5C[C@@H](O)[C@]5(C)[C@@H](C7=CC(=O)OC7)CC[C@]65O)C4)O[C@@H]3C)O[C@@H]2C)C[C@H](O)[C@@H]1O [Digoxin]
- Sox2 expression (GBM2 cells [2]): reduced
- expression of the core transcription factors (GBM2 cells [2]): downregulate
- Sall2 and Brn2 expression (GBM2 cells [2]): significant reduction
- gene expression changes (GO terms) compared with those induced by serum or BMP4 (GBM2 cells [3]): markedly different
- ranking by average Euclidean distance from serum- or Bmp4-treated cells (MIEL- and gene expression-based) (GBM2 cells [3]): lowest-ranking candidate
- gene expression changes (GO terms) compared with those induced by serum or BMP4 (GBM2 cells [3]; listed as digoxin): rather different
- Euclidean distance (FPKM, all expressed genes) of treated cells to serum or Bmp4 treated cells (GBM2 cells [3]): Neither Digitoxigenin nor Digoxin reduced the distance
- growth rate of drug-treated cells (TPCs): stronger reduction; also recorded: cytostatic
- growth rate of drug-treated cells (TPCs; listed as digoxin): cytostatic

Compound: CC(C)n1nc(-c2ccc3oc(N)nc3c2)c2c(N)ncnc21 [INK128]
- outcome in high throughput screening using primary mouse hepatocytes (miBioAge) [1]: hits to be tested in animal models

Compound: CN(C)C(=N)N=C(N)N [Metformin]
- outcome in high throughput screening using primary mouse hepatocytes (miBioAge) [1]: positive controls

Compound: Cn1c(=O)n(-c2ccc(C(C)(C)C#N)cc2)c2c3cc(-c4cnc5ccccc5c4)ccc3ncc21 [NVP-BEZ235]
- outcome in high throughput screening using primary mouse hepatocytes (miBioAge) [1]: hits to be tested in animal models

Compound: O=C(O)C(Cc1c[nH]c2ccccc12)N1C(=O)c2ccccc2C1=O (centres unmarked) [RG108]
- outcome in high throughput screening using primary mouse hepatocytes (miBioAge) [1]: inactive molecules

Compound: CC(=O)Oc1ccccc1C(=O)O [aspirin]
- shift of epigenetic signature of old cells towards that of young cells [1]: Statistically significant dose-dependent shifts

Compound: COc1cc([C@@H]2c3cc4c(cc3[C@@H](O[C@@H]3O[C@@H]5CO[C@@H](C)O[C@H]5[C@H](O)[C@H]3O)[C@H]3COC(=O)[C@H]23)OCO4)cc(OC)c1O [etoposide]
- ranking by average Euclidean distance from serum- or Bmp4-treated cells (MIEL- and gene expression-based) (GBM2 cells [3]): top candidate

Continued, in another order:

- outcome in high throughput screening using primary mouse hepatocytes (miBioAge) [1]: positive controls
Compound: C[C@]12CC[C@@H]3c4ccc(O)cc4CC[C@H]3[C@@H]1CC[C@@H]2O [17 beta-estradiol]

- outcome in high throughput screening using primary mouse hepatocytes (miBioAge) [1]: hits to be tested in animal models
Compound: COc1ncc(-c2ccc3nccc(-c4ccnnc4)c3c2)cc1NS(=O)(=O)c1ccc(F)cc1F [GSK2126458]

- outcome in high throughput screening using primary mouse hepatocytes (miBioAge) [1]: positive controls
Compound: CC(Cc1ccc(O)c(O)c1)C(C)Cc1ccc(O)c(O)c1 (centres unmarked) [NDGA]
- shift of epigenetic signature of old cells towards that of young cells [1]: Statistically significant dose-dependent shifts

- outcome in high throughput screening using primary mouse hepatocytes (miBioAge) [1]: inactive molecules
Compound: NC(=O)c1ccc[n+]([C@@H]2O[C@H](COP(=O)([O-])O)[C@@H](O)[C@H]2O)c1 [Nicotiamide mononucleotide, Nicotinamide mononucleotide]

- outcome in high throughput screening using primary mouse hepatocytes (miBioAge) [1]: inactive molecules
Compound: NC(=O)c1ccc[n+]([C@@H]2O[C@H](CO)[C@@H](O)[C@H]2O)c1 [nicotinamide riboside]
